According to patent US20190203254A1, “CORTICAL NEURON CELL MODEL OF ALZHEIMER'S DISEASE BASED ON BMI1 DEFICIENCY, AND USES THEREOF” (9636137 Canada Inc., priority 2016, published 2019):

What was measured:
shBMI1 neurons [1] = assay type: cell-based, human
Source text: FIG. 5 is a panel with pictures and graphs illustrating that BMI1 deficiency in neurons results in activation of MAPT, GSK3b and p53. FIG. 5A: Immunoblots for AD-related proteins in shCTL, shBMI1 and BMI1 overexpressing (BMI1 OE) neurons. Protein expression ratios were established using Ponceau staining and where expression in shCTL neurons was set as 1. FIG. 5B: Confocal analysis of F-Actin (phalloidin), amyloid (PA3), p-Tau (PHF1) and activated caspase-3 (Casp3a) in shBMI1 neurons treated with DMSO, β-secretase inhibitor (BSI), γ-secretase inhibitor (GSI) or y-secretase modulator (GSM). Quantification was established using shCTL neurons set as 1. Scale bar: 40 μm.
Human embryonic stem cells were differentiated into cortical neurons. The differentiation protocol was based on a previous study (Espuny-Camacho, I., et al., Pyramidal neurons derived from human pluripotent stem cells integrate efficiently into mouse brain circuits in vivo. Neuron 77, 440-456, (2013)). However, the Noggin agonist LDN193189 was used to reduce recombinant Noggin concentration. The H9 (WiCell™) and HUES9 (Harvard Stem Cell Institute) cell lines were dissociated using Accutase™ (Innovative Cell Technology #AT-104) and platted on growth factor reduced Matrigel™ (Corning #356231) in PeproGrow™ hES cell media (PeproTech #BM-hESC) supplemented with ROCK™ inhibitor (Y-27632; 10 μM, Cayman Chemical #10005583). Upon 70% of confluency, the media was changed to DDM supplemented with B27 (1× final), Noggin (10 ng/ml, PeproTech #120-10C) and LDN193189 (0.5 μM; Sigma #SML0559). The medium was changed every day. After 16 days of differentiation, the medium was changed to DDM/B27 and replenished every day. At day 24, neural progenitors were manually detached from the plate and mixed with lentiviral supernatant for 30 min at 37° C. Infected neural progenitors were subsequently mixed in DDM/B27 supplemented with ROCK™ inhibitor (Y-27632; 10 μM) and platted on growth factor reduced Matrigel™ coated plates or chamber slides (LabTek™ #154534). Five days after the dissociation/infection, half of the medium was changed for Neurobasal™ A media supplemented with B27 (1× final) and changed again every three days. For 3D cultures, neural progenitors at day 24 were mixed with ice-cold growth factor reduced Matrigel™ (1:20 dilution) and plated onto 8-well chamber slides. After 30 min of incubation at 37° C., fresh Neurobasal™ A/B27 were added.
Sequence-specific oligonucleotides stretch shRNA designed to target the BMI-1 ORF (accession No.: BC011652): were synthetized. Oligo#1 (nt 1061-1081) 5′-CCTAATACT TTCCAGATTGAT-3′ (SEQ ID NO: 3) and oligoScramble (nt 573-591) 5′-GGTACTTCATTGATGCCAC-3′ (SEQ ID NO: 4) were used in this study. These sequences are followed by the loop sequence (TTCAAGAGA) (SEQ ID NO: 5) and finally the reverse complements of the targeting sequences. The double stranded shRNA sequences were cloned downstream of the H1P promoter of the H1 P-UbqC-HygroEGFP plasmid using Age1, SmaI, and XbaI cloning sites. The shRNA-expressing lentiviral plasmids were cotransfected with plasmids pCMVdR8.9 and pHCMV-G into 293FT packaging cells using Lipofectamin™ (Invitrogen) according to the manufacturers instructions. Viral containing media were collected, filtered, and concentrated by ultracentrifugation. Viral titers were measured by serial dilution on 293T cells followed by microscopic analysis 48 hr later. For viral transduction, lentiviral vectors were added to dissociated cells prior to plating. […]

sAD patients = conditions: tested and abandoned in 2014 {De Strooper; cited from earlier work
shBMI1 neurons [2] = assay: Ab42 levels by ELISA in shBMI1 neurons treated with BSI (FIG. 3H); assay type: cell-based, human; conditions: BSI vs vehicle control
Source text: (§1) FIG. 3 is a panel with pictures and graphs illustrating that BMI1 deficiency in neurons results in p-Tau and amyloid accumulation. FIG. 3A: p-Tau (PHF1) accumulation in shBMI1 neurons but not in shCTL neurons (day 14). Scale bar: 40 mm. FIG. 3B: p-Tau (PHF1) accumulation in broken axonal segments of glutamatergic shBMl1 neurons (arrows), and co-localization of p-Tau with vGLUT1 in axonal swellings (arrows in the inset). Scale bar: 40 mm. FIG. 3C: Quantification of PHF1-positive neurons and of p-Tau foci/axon in shCTL (n=3) and shBMI1 (n=3) cultures. All values are mean±SEM. (*) P<0.05; (**) P<0.01 by Student's unpaired t-test. FIG. 3D: Confocal immunofluorescence for the apoptosis marker activated caspase-3 in shCTL and shBMl1 cultures. Scale bar: 40 mm. FIG. 3E: Quantification of activated caspase-3 positive cells in GABA+ and GABA− neuronal populations. All values are mean±SEM. (*) P<0.05 by Student's unpaired t-test. FIG. 3F: Amyloid accumulation in shBMl1 neurons as compared to shCTL neurons using the MOAB2 or PA3 antibodies. Scale bars: 40 mm. FIG. 3G: Confocal immunofluorescence for oligomeric amyloid (NU1) and Ab42 (PA3) of shCTL and shBMI1 neurons treated with beta-secretase inhibitor (BSI) or vehicle control. FIG. 3H: Intracellular and extracellular Ab42 levels in shCTL (n=3) and shBMl1 (n=3) neurons by ELISA. […]

shBMI1 neurons [3] = assay: Confocal immunofluorescence for oligomeric amyloid (NU1) and Ab42 (PA3) in shBMI1 neurons treated with BSI (FIG. 3G); assay type: cell-based, human; conditions: BSI vs vehicle control
Source text: as §1

[4] = BMI1-deficient neurons, working concentration BSI 1 μM, GSI 0.5 μM, GSM 30 μM, FIG. 5B

Row | SMILES | toxicity for BMI1-knockdown human cortical neurons (shBMI1 neurons [1]) | p-Tau localization (shBMI1 neurons [1]; BMI1-deficient neurons, GSI 0.5 μM, FIG. 5B) | amyloid immuno-reactivity (PA3) / C99/amyloid accumulation (shBMI1 neurons [1]; [4]) | p-Tau (PHF1) immuno-reactivity / intensity (shBMI1 neurons [1]; [4]) | most pathological parameters (shBMI1 neurons [1]; BMI1-deficient neurons, working concentration GSI 0.5 μM, GSM 30 μM, FIG. 5B) | neuro-toxicity in sAD patients (sAD patients) | amyloid (Ab42) concentration by ELISA (shBMI1 neurons [2]) | amyloid immunoreactivity (antibodies against Ab42) (shBMI1 neurons [3])
1 | C[C@H](NC(=O)Cc1cc(F)cc(F)c1)C(=O)N[C@H](C(=O)OC(C)(C)C)c1ccccc1 [GSI, DAPT] | toxic | re-localization of p-Tau to the neuronal soma suggested tangle formation | reached saturation levels | reduced | did not improve | high | – | –
2 | C[C@@H](NC(=O)c1cc(C(=O)N[C@@H](Cc2ccccc2)[C@H](O)CNC2CC2)cc(N(C)S(C)(=O)=O)c1)c1ccccc1 [BSI, BSI-IV] | – | – | – | – | – | – | normalized | highly reduced
